Measured values as given in the supplement of paper PMC8633005.

Legend:
Assay in all cases: drug sensitivity score (DSS) (DSS (unitless, 0-50 scale)); higher = more sensitive (stronger viability inhibition); extreme values may be limits of the assay
Details in all cases: 72 h; culture: 2D
SK-MEL-2 = system: SK-MEL-2
In short: (§1)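 Viability was measured by CellTiter-Glo luminescence after 72 h at 37 °C in 384-well plates holding a 527-compound oncology library, with patient-derived melanoma cultures (1000–1500 cells per well) and melanoma cell lines grown in 2D. Every compound was tested at five concentrations spanning a 10,000-fold range. The drug sensitivity score, a modified area under the curve, came from dose-response curves fitted with in-house Breeze software.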

FM-MEL-2 = system: FM-MEL-2
In short: as §1

FM-MEL-3 = system: FM-MEL-3
In short: as §1

FM-MEL-6 = system: FM-MEL-6
In short: as §1

SK-MEL-28 = system: SK-MEL-28
In short: as §1

WM165 = system: WM165
In short: as §1

Bowes = system: Bowes
In short: as §1

WM852 = system: WM852
In short: as §1

Row | SMILES | drug sensitivity score (SK-MEL-2) | drug sensitivity score (FM-MEL-2) | drug sensitivity score (FM-MEL-3) | drug sensitivity score (FM-MEL-6) | drug sensitivity score (SK-MEL-28) | drug sensitivity score (WM165) | drug sensitivity score (Bowes) | drug sensitivity score (WM852)
1 | Cn1ncc(Cl)c1-c1cc(C(=O)N[C@H](CN)Cc2ccc(F)c(F)c2)oc1Cl [Uprosertib] | 0 | 1.2 | 0 | 0 | 0.5 | 1.1 | 0 | 0
2 | CS(=O)(=O)c1ccc(-c2cnc(N)c(C(=O)Nc3ccccc3)n2)cc1 [VE-821] | 0 | 0 | 1.6 | 0 | 0 | 0 | 3.1 | 2.6
3 | O=C(O)CC1CC(c2ccccc2)=NO1 (stereo not given) [VGX-1027] | 0 | 0 | 0 | 0 | 0 | 0 | 0 | 0
4 | C=CC(=O)N1CC/C(=C\c2ccc(F)c([N+](=O)[O-])c2)C(=O)/C(=C/c2ccc(F)c([N+](=O)[O-])c2)C1 [VLX1570] | 14.9 | 7.8 | 18.6 | 2.4 | 15.8 | 24 | 23.8 | 18.8
5 | CNC(=O)c1ccccc1Nc1cc(Nc2ccc(N3CCOCC3)cc2OC)ncc1C(F)(F)F [VS-4718] | 6.3 | 9.2 | 12.5 | 7.2 | 4.5 | 7.8 | 3 | 6.7
6 | CCCC(CCC)C(=O)O [Valproic acid] | 0 | 0.2 | 0.3 | 0 | 0 | 0 | 0 | 0
7 | CCCCC(=O)OCC(=O)[C@]1(O)Cc2c(O)c3c(c(O)c2[C@@H](O[C@H]2C[C@H](NC(=O)C(F)(F)F)[C@H](O)[C@H](C)O2)C1)C(=O)c1c(OC)cccc1C3=O [Valrubicin] | 8.5 | 6.8 | 7.2 | 9.2 | 8.3 | 21.5 | 6.4 | 5.1
8 | COc1cc2/c(=N/c3ccc(Br)cc3F)nc[nH]c2cc1OCC1CCN(C)CC1 [Vandetanib] | 0 | 0 | 0 | 0.2 | 0.4 | 0 | 1.3 | 0
9 | CCc1c(C(=O)C(N)=O)c2c(OCC(=O)O)cccc2n1Cc1ccccc1 [Varespladib] | 0 | 0 | 0 | 0 | 0 | 0 | 0 | 0
10 | C[C@@H]1COC(Nc2ccc3ncnc(Nc4ccc(OCc5nccs5)c(Cl)c4)c3c2)=N1 [Varlitinib] | 0 | 5.7 | 2.2 | 0 | 0.3 | 0 | 0 | 1.7
11 | Clc1ccc(Nc2nnc(Cc3ccncc3)c3ccccc23)cc1 [Vatalanib] | 0 | 0 | 0 | 0 | 0 | 0 | 0 | 0
12 | C[C@]1(c2nc3c(C(N)=O)cccc3[nH]2)CCCN1 [Veliparib] | 0 | 0.7 | 0.6 | 0 | 0.2 | 0.9 | 0 | 0
13 | CCCS(=O)(=O)Nc1ccc(F)c(C(=O)c2c[nH]c3ncc(-c4ccc(Cl)cc4)cc23)c1F [Vemurafenib] | 0 | 0 | 0 | 0 | 13.5 | 10.2 | 2.4 | 0
14 | CC1(C)CCC(CN2CCN(c3ccc(C(=O)NS(=O)(=O)c4ccc(NCC5CCOCC5)c([N+](=O)[O-])c4)c(Oc4cnc5[nH]ccc5c4)c3)CC2)=C(c2ccc(Cl)cc2)C1 [Venetoclax] | 0 | 0 | 3.6 | 0 | 0 | 0 | 0 | 0
15 | O=C(/C=C\n1cnc(-c2cc(C(F)(F)F)cc(C(F)(F)F)c2)n1)NNc1ccccn1 [Verdinexor] | 2.3 | 4.2 | 5.3 | 4 | 5 | 9.3 | 4.1 | 2
16 | CCCCOc1nc(N)c2c(n1)N(Cc1cccc(CN3CCCC3)c1)CC(=O)N2 [Vesatolimod] | 0 | 0 | 0 | 0.8 | 0 | 0 | 0 | 0
17 | COc1cccc(-c2ccc(NC(=O)C3=C(C(=O)O)CCC3)c(F)c2)c1 [Vidofludimus] | 0 | 0 | 0.3 | 0 | 0 | 1.3 | 0.4 | 0
18 | CC[C@]1(O)C[C@@H]2CN(CCc3c([nH]c4ccccc34)[C@@](C(=O)OC)(c3cc4c(cc3OC)N(C)[C@H]3[C@@](O)(C(=O)OC)[C@H](OC(C)=O)[C@]5(CC)C=CCN6CC[C@]43[C@@H]65)C2)C1 [Vinblastine] | 19.3 | 4.5 | 11.9 | 3.9 | 8.9 | 19.9 | 21.8 | 13.8
19 | CC[C@]1(O)C[C@H]2CN(CCc3c([nH]c4ccccc34)[C@@](C(=O)OC)(c3cc4c(cc3OC)N(C=O)[C@H]3[C@@](O)(C(=O)OC)[C@H](OC(C)=O)[C@]5(CC)C=CCN6CC[C@]43[C@@H]65)C2)C1 [Vincristine] | 18.5 | 4.5 | 12.6 | 7.6 | 10.1 | 20.2 | 18.7 | 16.5
20 | CC[C@]12C=CCN3CC[C@@]4(c5cc([C@@]6(C(=O)OC)C[C@@H]7C[C@@H](C(C)(F)F)CN(Cc8c6[nH]c6ccccc86)C7)c(OC)cc5N(C)[C@H]4[C@@](O)(C(=O)OC)[C@@H]1OC(C)=O)[C@@H]32 [Vinflunine] | 2.7 | 1 | 3.2 | 3.8 | 3.5 | 4.6 | 3.6 | 3.5
